Measurements published in patent US9926326B2, “Substituted thioxanthenone autophagy inhibitors” (THE CLEVELAND CLINIC FOUNDATION, priority 2014, dated 2018).

Legend:
RL = experiment: 72 h MTT assay, RL; type: cell-based; conditions: Homo sapiens, NHL
Method: (§1) Quantification of drug-induced cytotoxicity. Cell viability was assessed by MIT assay. Cells were seeded into 96-well microculture plates at […] per well and allowed to attach for 24 h. Cells were then treated with ROC-325 or HCQ for 72 h. Following drug treatment, MTT was added and cell viability was quantified using a BioTek (Winooski, Vt.) microplate reader. Pro-apoptotic effects following in vitro drug exposure were quantified by propidium iodide (PI) staining and fluorescence-activated cell sorting (FACS) analysis of sub-G0/G1 DNA content as previously described and by measurement of active caspase-3 by flow cytometry using a commercial kit (BD Biosciences, San Jose, Calif.). Mahalingam et al., Clin Cancer Res 2010; 16:141-53.

DLD-1 = experiment: 72 h MTT assay, DLD-1; type: cell-based; conditions: Homo sapiens, DLD-1, Colon
Method: as §1

NCI-H69 = experiment: 72 h MTT assay, NCI-H69; type: cell-based; conditions: Homo sapiens, NCI-H69, Lung
Method: as §1

MCF-7 = experiment: 72 h MTT assay, MCF-7; type: cell-based; conditions: Homo sapiens, MCF7, MCF-7, Breast
Method: as §1

IGROV-1 = experiment: 72 h MTT assay, IGROV-1; type: cell-based; conditions: Homo sapiens, IGROV-1, Ovarian
Method: as §1

CFPAC-1 = experiment: 72 h MTT assay, CFPAC-1; type: cell-based; conditions: Homo sapiens, CFPAC-1, Pancreas
Method: as §1

UACC-62 = experiment: 72 h MTT assay, UACC-62; type: cell-based; conditions: Homo sapiens, UACC-62, Melanoma
Method: as §1

COLO-205 = experiment: 72 h MTT assay, COLO-205; type: cell-based; conditions: Homo sapiens, COLO-205, Colon
Method: as §1

A498 = experiment: 72 h MTT assay, A498; type: cell-based; conditions: Homo sapiens, A498, Renal
Method: (§2) Cells and cell culture. A498, 786-0, Achn and Caki-2 cells were obtained from ATCC (Manassas. Va.). Cells were cultured with medium supplemented with 10% FBS at 37° C. with 5% CO2 as previously described. Swords et al., Blood 2010; 115:3796.800. Human normal renal proximal tubule epithelial cells (RPTEC) were purchased from Clonetics (Walkersville, Md.) and cultured in REGM media (REGM BulletKit, Clonetics). Cell lines were authenticated by the source banks using DNA profiling techniques and were used for this study in accordance with AACR guidelines.
as §1

A549 = experiment: 72 h MTT assay, A549; type: cell-based; conditions: Homo sapiens, A549, Lung
Method: as §1

PC-3 = experiment: 72 h MTT assay, PC-3; type: cell-based; conditions: Homo sapiens, PC-3, Prostate
Method: as §1

MiaPaCa-2 = experiment: 72 h MTT assay, MiaPaCa-2; type: cell-based; conditions: Homo sapiens, MIA PaCa-2, MiaPaCa-2, Pancreas
Method: as §1

[1] = Carew et al., J Biol Chem 2011; cited from earlier work
786-0 RCC xenografts = experiment: In vivo evaluation in 786-O RCC xenografts; set-up: species or system nude mice
Method: In vivo evaluation of ROC-325 and HCQ. 786-O renal cancer cells (5×106) were suspended in a mixture of HBSS and Matrigel and subcutaneously implanted into female nude mice (BALB/c background). Tumor-bearing animals from each cell line xenograft were randomized into treatment groups. Mice were treated with vehicle (water), ROC-325 (25, 40, and 50 mg/kg PO), or HCQ (60 mg/kg IP) QD×5 for 6 weeks. Mice were monitored daily and tumor volumes were measured twice weekly. At study completion, tumors from representative animals were excised from each group, […], and paraffin-embedded for immunohistochemical analysis.
Immunohistochemistry. Paraffin-embedded tumor sections were deparaffinized in xylene, exposed to a graded series of alcohol, and rehydrated in PBS (pH 7.5). Heat-induced epitope retrieval on paraffin-embedded sections and probing with specific antibodies was conducted as previously described. Nawrocki et al., Clin Cancer Res 2013; 19:3577-90. Positive reactions were visualized using 3,3′-diaminobenzidine (Dako, Glostrup, Denmark). Images were captured using an Olympus fluorescent microscope (Center Valley. Pa.) with a DP71 camera and a 20× objective. Image-Pro Plus software Version 6.2.1 (MediaCybernetics, Bethesda, Md.) was used for image acquisition. ImageJ software was used for quantification of LC3B and p62 levels by densitometric analysis of five random fields containing viable tumor cells. Quantification of cleaved caspase-3 was conducted by counting the number of positive cells in five random fields as previously described. Carew et al., Cancer Res 2008; 68:4783-90.

RCC cells [2] = experiment: Transmission electron microscopy; type: cell-based, human; conditions: 5 μM, 24 h
Method: Transmission electron microscopy. Transmission electron microscopy of cells was performed as previously described. Carew et al., J Cell Mol Med 2010 Oct.; 14(10):2448-59. RCC cells were treated with ROC-325 for 24 h and harvested for imaging. Briefly, sections were cut in an LKB Ultracut microtome (Leica. Deerfield, Ill.), stained with uranyl acetate and lead citrate, and examined in a JEM 1230 transmission electron microscope (JEOL, USA, Inc., Peabody, Mass.). Images were captured using the AMT Imaging System (Advanced Microscopy Techniques Corp, Danvers. Mass.).

LC3B = LC3B immunocytochemistry; type: cell-based, human; conditions: 5 μM, 24 hours, A498 and 786-0
Method: Immunocytochemistry. Cells were plated on chamber slides and allowed to attach overnight. Cells were then treated for 24 h with ROC-325. Following drug treatment, cells were fixed with 4% paraformaldehyde, permeabilized using 0.2% triton-X-100, and incubated overnight with anti-LC3B antibody. Alexa Fluor 594 conjugated fluorescent secondary antibody was used to visualize protein localization. Dapi was utilized to stain the nucleus. Images were captured using an Olympus fluorescent microscope (Center Valley, Pa.) with a DP71 camera and a 60× objective. Image-Pro Plus software Version 6.2.1 (MediaCybernetics, Bethesda, Md.) was used for image acquisition.

A498 and 786-O cells = experiment: Giemsa staining, vacuolization; type: cell-based, human; conditions: 5 μM, 24 h
Method: Giemsa staining. Cells were plated in chamber slides as previously described and treated with ROC-325 for 24 h. Carew et al., J Biol Chem 2011; 286:6602-13. Following drug treatment, cells were washed with PBS and fixed in methanol for 5 minutes. Cells were then incubated for 1 h in Giemsa stain diluted 1:20 with deionized water. Cells were rinsed with water and imaged using an Olympus fluorescent microscope. Image-Pro Plus software Version 6.2.1 was used for image acquisition.

[3] = tested on: normal renal proximal tubule endothelial cells (RPTEC); experiment: MTT cell viability in normal renal cells; type: cell-based, human; conditions: 72 hours
Method: as §2, §1

RCC cells [4] = experiment: Apoptosis: active caspase-3 flow cytometry and PI-FACS DNA fragmentation; type: cell-based, human; conditions: 48 hours
Method: as §1

LC3B, p62, cathepsin D = experiment: Immunoblotting of autophagy markers and autophagic flux with bafilomycin A1; type: cell-based, human
Method: Immunoblotting. Renal cancer cells were incubated with ROC-325 for 24 h. Cells were harvested and were then lysed as previously described. Nawrocki S T, Carew J S, Maclean K H, Courage J F, Huang P, Houghton J A, Cleveland J L, Giles F J, McConkey D J. Myc regulates aggresome formation, the induction of Noxa, and apoptosis in response to the combination of bortezomib and SAHA. Blood 2008; 112:2917-26. Approximately 50 μg of total cellular protein from each sample were subjected to SDS-PAGE, proteins were transferred to nitrocellulose membranes, and the membranes were blocked with 5% nonfat milk in a Tris-buffered saline solution containing 0.1% Tween-20 for 1 h. The blots were then probed overnight at 4° C. with primary antibodies, washed, and probed with species-specific secondary antibodies coupled to horseradish peroxidase. Immunoreactive material was detected by enhanced chemiluminescence (West Pico, Pierce, Inc., […]. Ill.).

[5] = tested on: 12 different human cancer cell lines; experiment: Direct comparison of in vitro anticancer effects in 12 cancer cell lines (MTT); type: cell-based; conditions: all 12 models tested, 72 h MTT
Method: as §1

cathepsin D (CTSD) = experiment: Cathepsin D expression, microarray and qRT-PCR; type: cell-based, human; conditions: A498 and 786-0, 5 μM, 24 hours; confirmed by qRT-PCR
Method: Expression microarrays. RCC cells were treated with […] for 24 h. Total RNAs were isolated using the RNeasy Plus Mini Kit (Qiagen, Germantown, Md.) and treated with TURBO DNA-Free™ Kit (Applied Biosystems, Foster City, Calif.), 300 ng of total RNA per sample was amplified and hybridized to GeneChip® Human Gene 1.0 ST arrays (Affymetrix, Inc., Santa Clara, Calif.) according to the manufacturer's instructions. Affymetrix CEL files were imported into Partek® Genomics Suite™ 6.4 (Partek Inc., St. Louis. Mo.) using the default Partek normalization parameters and the robust multi-array average (RMA) analysis adjusted for probe sequence and GC content (GC-RMA). Data normalization was performed across all arrays using quantile normalization.
Quantitative real time polymerase chain reaction, cDNA from ROC-325 treated cells were used for relative quantification by RT-PCR analyses. First-strand cDNA synthesis was performed from 1 μg RNA in a 20 μl reaction mixture using the high-capacity eDNA Reverse Transcription Kit (Applied Biosystems, Foster City, Calif.). Cathepsin D (CTSD) and GAPDH transcripts were amplified using commercially available TaqMan® Gene expression assays (Applied Biosystems, Foster City, Calif.). Relative gene expression was calculated with the 2-Ct method using GAPDH as a housekeeping gene. Pfaffl M W., Nucleic Acids Res 2001; 29:e45.

[6] = tested on: RCC cell lines (786-0, A498, Achn, and Caki-2); experiment: MTT cell viability in RCC cell lines; type: cell-based, human; conditions: 72 hours
Method: as §2, §1

786-O and A498 cells = experiment: Acridine orange staining of acidic lysosomes; type: cell-based, human; conditions: 24 h
Method: Acridine orange staining. Acidic lysosomes were visualized by acridine orange staining as previously described. Carew et al., J Biol Chem 2011; 286:6602-13. After treatment with ROC-325 for 24 h, cells were stained with 1 μM acridine orange for 15 minutes at 37° C. Cells were washed with PBS and images were captured using an Olympus fluorescent microscope. Acidic lysosomes appear as orange fluorescent cytoplasmic vesicles. Quantification of 5 random fields of acridine orange intensity and image acquisition were performed using Image-Pro Plus software Version 6.2.1.

Structure (SMILES)	IC50 (RL) [µM]	IC50 (DLD-1) [µM]	IC50 (NCI-H69) [µM]	IC50 (MCF-7) [µM]	IC50 (IGROV-1) [µM]	IC50 (CFPAC-1) [µM]	IC50 (UACC-62) [µM]	IC50 (COLO-205) [µM]	IC50 (A498) [µM]	IC50 (A549) [µM]	IC50 (PC-3) [µM]	IC50 (MiaPaCa-2) [µM]	further results
CCN(CCO)CCCC(C)Nc1ccnc2cc(Cl)ccc12 (stereo not drawn) [HCQ, hydroxychloroquine, reference compound]	35	> 75	54	> 75	> 75	> 75	> 75	51	52	> 75	58	> 75	–
CCN(CC)CCNc1ccc(C)c2sc3ccccc3c(=O)c12 [LUC, lucanthone]	–	–	–	–	–	–	–	–	–	–	–	–	anticancer activity compared to CQ [1]: approximately 10 ×
Cc1ccc(NCCN(C)CCNc2ccnc3cc(Cl)ccc23)c2c(=O)c3ccccc3sc12 [ROC-325]	8.4	7.4	5	8.2	11	4.6	6	5.4	4.9	11	11	5.8	tolerability (786-0 RCC xenografts; 25, 40, or 50 mg/kg PO, nude mice): well tolerated; disease progression (tumor volume) (786-0 RCC xenografts; 25, 40, or 50 mg/kg QD PO, 786-0 xenografts in nude mice): significant, dose-dependent inhibition of disease progression; LC3B in tumors (immunohistochemistry) (786-0 RCC xenografts; 786-0 xenograft specimens): significant, dose-dependent increases; apoptosis in tumors (cleaved caspase-3 immunohistochemistry) (786-0 RCC xenografts; 786-0 xenograft specimens): increased apoptosis; p62 in tumors (immunohistochemistry) (786-0 RCC xenografts; 786-0 xenograft specimens): significant, dose-dependent increases; mean body weight (786-0 RCC xenografts; highest dose, end of study (Day 46)): very modest, non-significant reduction; oral bioavailability (786-0 RCC xenografts; mice, PO): orally bioavailable; autophagosomes (RCC cells [2]): promoted the accumulation of autophagosomes; LC3B distribution and levels (LC3B): formation of LC3B punctae and a robust increase in LC3B levels; cytosolic vacuolization (A498 and 786-O cells): induced cytosolic vacuolization; cell viability of normal renal cells [3]: marginal reduction in cell viability; percentages of cells with active caspase-3 expression (RCC cells [4]): dose-dependent increases; percentages of cells with fragmented DNA (RCC cells [4]; PI-FACS): dose-dependent increases; autophagic flux (LC3B, p62, cathepsin D; 786-0, alone and combined with bafilomycin A1): effectively inhibited autophagic flux; LC3B expression (immunoblotting) (LC3B, p62, cathepsin D; A498 and 786-0, 24 h): dose-dependent increase; levels of p62 and cathepsin D (immunoblotting) (LC3B, p62, cathepsin D; A498 and 786-0, 24 h): corresponding increase; lower IC50s than HCQ [5]: approximately 10 fold; CTSD levels (cathepsin D (CTSD)): highly significant increase; more effective at diminishing RCC cell viability than HCQ [6]: approximately 10 fold; acridine orange fluorescence (lysosomal membrane permeability) (786-O and A498 cells): significant loss of acridine orange fluorescence
